According to patent publication US20070082883A1, “HIV protease inhibitors” (THE BOARD OF TRUSTEES OF THE UNIVERSITY OF ILLINOIS, priority 2002, published 2007):

Biological target: T1, HIV-1 protease (Human immunodeficiency virus type 1 group M subtype B, UniProt P04585)
T1 construct: made in house; host or cells: E. coli BL21 (dE3)pLysS, pET30a vector
Assay: HIV-1 Protease Inhibition Assay
Assay type: biochemical
Details: fluorogenic substrate assay
Text: Assays of the dose-response effect of inhibitor compounds can be described as a curve expressing a degree of inhibition as a function of concentration. The curve theoretically passes through a point at which the concentration is sufficient to reduce activity of the HIV protease enzyme to a level that is 50% that of the difference between minimal and maximal enzyme activity in the assay.
HIV-1 Protease Inhibition Assay
The HIV-1 protease gene was subcloned into the pET30a vector (Novagen) and then transformed into BL21 (dE3)pLysS cells for protein expression. Protein expression and purification were followed according to Tang's procedure (Hong et al., Biochemistry, 1996, 35, 10627-10633). […] The inclusion body containing some bacterial proteins was thoroughly washed by using TRITON X-100, solubilized in […] and passed through the Q-sepharose column to remove the bacterial proteins which interfered with subsequent refolding steps. HIV-1 protease was refolded from the urea to an active form by dialysis. As a final step, gel filtration chromatography was used to remove impurities after refolding. Activities of purified HIV-1 protease were examined using a fluorogenic substrate, 2-aminobenzoyl-Thr-Ile-Nle-Phe(pNO2)-Gln-Arg-NH2 (Novabiochem). […] In the condition of So<<Km, v=Eo(kcat/Km)So, where Eo is the total enzyme concentration, and So is the substrate concentrate. […] Assays are carried out as described by Toth and Marshall (Toth et al., Int. J. Pept. Protein Res., 1990, 36, 544-50).

SMILES	IC50	Ki
COc1ccc(S(=O)(=O)N(C[C@@H](O)[C@H](Cc2ccccc2)NC(=O)O[C@H]2CO[C@H]3OCCC32)C2CN(C(=O)OC(C)(C)C)C2)cc1 (some centres unmarked) [Compound 200]	7.6 nM	2.3 nM
COc1ccc(S(=O)(=O)N(C[C@@H](O)[C@H](Cc2ccccc2)NC(=O)O[C@H]2CO[C@H]3OCCC32)C2CN(C)C2)cc1 (some centres unmarked) [Compound 201]	5.6 nM	1.7 nM
COc1ccc(S(=O)(=O)N(C[C@@H](O)[C@H](Cc2ccccc2)NC(=O)O[C@@H]2CO[C@@H]3OCC[C@@H]32)C2CN(C)C2)cc1 [Compound 202]	31 nM	9.7 nM
COc1ccc(S(=O)(=O)N(C[C@@H](O)[C@H](Cc2ccccc2)NC(=O)O[C@@H]2CC3CCO[C@@H]3C2)C2CN(C)C2)cc1 (some centres unmarked) [Compound 204]	5.6 nM	1.7 nM
COc1ccc(S(=O)(=O)N(C[C@@H](O)[C@H](Cc2ccccc2)NC(=O)O[C@H]2C[C@H]3CCO[C@H]3C2)C2CN(C)C2)cc1 [Compound 205]	87 nM	27 nM
COc1ccc(S(=O)(=O)N(C[C@@H](O)[C@H](Cc2ccccc2)NC(=O)O[C@H]2CCOC2)C2CN(C)C2)cc1 [Compound 206]	109 nM	34 nM
COc1ccc(S(=O)(=O)N(CC(C)C)C[C@@H](O)[C@H](Cc2ccc(OCc3ccccc3)cc2)NC(=O)OC(C)(C)C)cc1 [Compound 207]	96 nM	30 nM
COc1ccc(S(=O)(=O)N(CC(=O)[C@H](Cc2ccc(OCc3ccccc3)cc2)NC(=O)OC(C)(C)C)CC(C)C)cc1 [Compound 208]	> 2300 nM	–
COc1ccc(S(=O)(=O)N(CC(C)C)C[C@H](O)[C@H](Cc2ccc(OCc3ccccc3)cc2)NC(=O)OC(C)(C)C)cc1 [Compound 209]	30 nM	9.3 nM
COc1ccc(S(=O)(=O)N(CC(C)C)CC(O)C(Cc2ccc(OCc3ccccc3)cc2)NC(=O)OC(C)(C)C)cc1 (centres unmarked) [Compound 210]	13 nM	4.1 nM
COc1ccc(S(=O)(=O)N(CC(C)C)C[C@H](O)[C@H](Cc2ccc(OCc3ccccc3)cc2)NC(=O)O[C@H]2CO[C@H]3OCCC32)cc1 (some centres unmarked) [Compound 211]	90 nM	28 nM
COc1ccc(S(=O)(=O)N(CC(C)C)C[C@@H](O)[C@H](Cc2ccc(OCc3ccccc3)cc2)NC(=O)O[C@H]2CO[C@H]3OCCC32)cc1 (some centres unmarked) [Compound 212]	30 nM	9.3 nM
COc1ccc(S(=O)(=O)N(CC(C)C)C[C@@H](O)[C@H](Cc2ccc(O)cc2)NC(=O)O[C@H]2CO[C@H]3OCCC32)cc1 (some centres unmarked) [Compound 213]	4.1 nM	1.3 nM
C=CCCCCN(C[C@@H](O)[C@H](Cc1ccccc1)NC(=O)O[C@H]1CO[C@H]2OCCC21)S(=O)(=O)c1cccc(OCCCC=C)c1 (some centres unmarked) [Compound 225]	8.1 nM	2.5 nM
O=C(N[C@@H](Cc1ccccc1)[C@H](O)CN1CCCC/C=C/CCCOc2cccc(c2)S1(=O)=O)O[C@H]1CO[C@H]2OCCC21 (some centres unmarked) [Compound 225a]	7.8 nM	2.4 nM
O=C(N[C@@H](Cc1ccccc1)[C@H](O)CN1CCCCCCCCCOc2cccc(c2)S1(=O)=O)O[C@H]1CO[C@H]2OCCC21 (some centres unmarked) [Compound 225b]	7.8 nM	2.4 nM
C=CCCCCOc1cccc(S(=O)(=O)N(CCCCC=C)C[C@@H](O)[C@H](Cc2ccccc2)NC(=O)O[C@H]2CO[C@H]3OCCC32)c1 (some centres unmarked) [Compound 225c]	8.5 nM	2.6 nM
C=CCCCCN(C[C@@H](O)[C@H](Cc1ccccc1)NC(=O)O[C@@H]1CC2CCO[C@@H]2C1)S(=O)(=O)c1cccc(OCC=C)c1 (some centres unmarked) [Compound 225f]	11 nM	3.4 nM
O=C(N[C@@H](Cc1ccccc1)[C@H](O)CN1CCCC/C=C\COc2cccc(c2)S1(=O)=O)O[C@@H]1CC2CCO[C@@H]2C1 (some centres unmarked) [Compound 225g]	10 nM	3.1 nM
O=C(N[C@@H](Cc1ccccc1)[C@H](O)CN1CCCCCCCOc2cccc(c2)S1(=O)=O)O[C@@H]1CC2CCO[C@@H]2C1 (some centres unmarked) [Compound 225h]	6.8 nM	2.1 nM
C=CCCCCOc1cccc(S(=O)(=O)N(CCCCC=C)C[C@@H](O)[C@H](Cc2ccccc2)NC(=O)O[C@@H]2CC3CCO[C@@H]3C2)c1 (some centres unmarked) [Compound 225i]	17 nM	5.3 nM
C=CCCCCOc1ccccc1COC(=O)N(CCCC=C)C[C@@H](O)[C@H](Cc1ccccc1)NC(=O)O[C@@H]1CC2CCO[C@@H]2C1 (some centres unmarked) [Compound 226]	> 2000 nM	–
O=C(N[C@@H](Cc1ccccc1)[C@H](O)CN1CCC/C=C\CCCCOc2ccccc2COC1=O)O[C@@H]1CC2CCO[C@@H]2C1 (some centres unmarked) [Compound 227]	495 nM	154 nM
